Measured values: patent US20120214760A1, “TREATMENT OF URINARY TRACT INFECTIONS WITH ANTIBACTERIAL AMINOGLYCOSIDE COMPOUNDS” (Achaogen, Inc., priority 2009, published 2012)
Values after ≈ are worked out from the molar mass of the structure shown. Where two headings read alike, the source gives them in different places.

Key:
Format in all cases: cell-based
Klebsiella spp. (21) = test: MIC, urinary tract infection isolates
Description: (§1) Minimum inhibitory concentrations (MIC) were determined by reference Clinical and Laboratory Standards Institute (CLSI) broth microdilution methods per M7-A7 [2006]. Quality control ranges utilizing E. coli ATCC 25922, P. aeruginosa ATCC 27853 and S. aureus ATCC 29213, and interpretive criteria for comparator agents were as published in CLSI M100-S17 [2007]. Briefly, serial two-fold dilutions of the test compounds were prepared at 2× concentration in Mueller Hinton Broth. The compound dilutions were mixed in 96-well assay plates in a 1:1 ratio with bacterial inoculum. The inoculum was prepared by suspension of a colony from an agar plate that was prepared the previous day. Bacteria were suspended in sterile saline and added to each assay plate to obtain a final concentration of 5×10^5 CFU/mL. The plates were incubated at 35° C. for 20 hours in ambient air.
(§2) In order to determine the activity of representative antibacterial aminoglycoside compounds against bacterial species that commonly cause complicated urinary tract infections worldwide, isolates were collected from 47 medical centers in the U.S. and Europe (10 countries) from urine or blood culture with the source of bacteremia documented as a urinary tract infection. Strains were susceptibility tested against Example 1, gentamicin, amikacin and 10 comparators by CLSI broth microdilution. These MIC assays were conducted following the same protocol as set forth in Example 110. Pathogens (169 in total) included E. coli, Klebsiella spp., Enterobacter spp., Citrobacter spp., P. mirabilis, M. Morganii, P. aeruginosa, S. aureus and S. saprophyticus.

P. aeruginosa (19) = test: MIC, urinary tract infection isolates; conditions: P. aeruginosa
Description: as §1, §2

Citrobacter spp. (15) = test: MIC, urinary tract infection isolates
Description: as §1, §2

M. morganii (15) = test: MIC, urinary tract infection isolates
Description: as §1, §2

E. coli (21) = test: MIC, urinary tract infection isolates
Description: as §1, §2

Enterobacter spp. (16) = test: MIC, urinary tract infection isolates
Description: as §1, §2

S. aureus (23) = test: MIC, urinary tract infection isolates; conditions: S. aureus
Description: as §1, §2

P. mirabilis (20) = test: MIC, urinary tract infection isolates
Description: as §1, §2

S. saprophyticus (19) = test: MIC, urinary tract infection isolates; conditions: S. saprophyticus
Description: as §1, §2

[1] = tested on: S. marcescens ASMA 1030, KPC; test: MIC of thigh model strain; conditions: Serratia marcescens; Table 5; S. marcescens KPC ASMA 1030
Description: as §1

E. coli AECO 1003, MDR = test: MIC of thigh model strain; conditions: Escherichia coli
Description: as §1

[2] = tested on: K. pneumoniae AKPN 1073, MDR; test: MIC of thigh model strain; conditions: Klebsiella pneumoniae; Table 5; K. pneumoniae MDR AKPN 1073
Description: as §1

[3] = tested on: K. pneumoniae AKPN 1109, KPC; test: MIC of thigh model strain; conditions: Klebsiella pneumoniae; Table 5; K. pneumoniae KPC AKPN 1109
Description: as §1

[4] = tested on: S. aureus ATCC 33591, MRSA; test: MIC of thigh model strain; conditions: Staphylococcus aureus
Description: as §1

[5] = tested on: K. pneumoniae ATCC 43816, Susceptible; test: MIC of thigh model strain; conditions: Klebsiella pneumoniae, ATCC43816; Table 5; K. pneumoniae Susceptible ATCC 43816
Description: as §1

[6] = tested on: E. coli ATCC 25922 (AECO001); test: MIC, CLSI broth microdilution; conditions: Escherichia coli, ATCC25922; Table 5; E. coli Susceptible ATCC 25922
How it was run: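 Broth microdilution per CLSI M7-A7, with serial two-fold compound dilutions in Mueller Hinton Broth mixed 1:1 with inoculum. Colonies from a previous-day agar plate were suspended in saline to a final 5×10^5 CFU/mL. Plates were incubated 20 hours at 35° C. in ambient air.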

Staphylococcal isolates = test: Susceptibility testing, urinary tract infection isolates
Description: as §1
as §2, with “These MIC assays were conducted following the same protocol as set forth in Example 110. Pathogens (169 in total) included E. coli, Klebsiella spp., Enterobacter spp., Citrobacter spp., P. mirabilis, M. Morganii, P. aeruginosa, S. aureus and S. saprophyticus.” left out

`CN[C@@H]1[C@@H](O)[C@@H](O[C@@H]2[C@@H](O)[C@H](O[C@H]3OC(CNCCO)=CC[C@H]3N)[C@@H](N)C[C@H]2NC(=O)[C@@H](O)CCN)OC[C@]1(C)O.O=S(=O)(O)O` [ACHN-490] was tested, and the “Cumulative % inhibited at ACHN-490 MIC” value (Klebsiella spp. (21); at 0.5 μg/ml) was 95.2%, the “Cumulative % inhibited at ACHN-490 MIC” value (Klebsiella spp. (21); at 1 μg/ml) was 100.0% and the “Cumulative % inhibited at ACHN-490 MIC” value (Klebsiella spp. (21); at ≦0.25 μg/ml) was 19.0%. For the same compound, the “Cumulative % inhibited at ACHN-490 MIC” value (P. aeruginosa (19); at 0.5 μg/ml) was 0.0%, the “Cumulative % inhibited at ACHN-490 MIC” value (P. aeruginosa (19); at 1 μg/ml) was 0.0% and the “Cumulative % inhibited at ACHN-490 MIC” value (P. aeruginosa (19); at 2 μg/ml) was 0.0%. The “Cumulative % inhibited at ACHN-490 MIC” value (P. aeruginosa (19); at 4 μg/ml) was 36.8%, the “Cumulative % inhibited at ACHN-490 MIC” value (P. aeruginosa (19); at 8 μg/ml) was 73.7% and the “Cumulative % inhibited at ACHN-490 MIC” value (P. aeruginosa (19); at 16 μg/ml) was 89.5%. The “Cumulative % inhibited at ACHN-490 MIC” value (P. aeruginosa (19); at 32 μg/ml) was 100.0%, the “Cumulative % inhibited at ACHN-490 MIC” value (P. aeruginosa (19); at ≦0.25 μg/ml) was 0.0% and the “Cumulative % inhibited at ACHN-490 MIC” value (Citrobacter spp. (15); at 0.5 μg/ml) was 73.3%. For the same compound, the “Cumulative % inhibited at ACHN-490 MIC” value (Citrobacter spp. (15); at 1 μg/ml) was 86.7%, the “Cumulative % inhibited at ACHN-490 MIC” value (Citrobacter spp. (15); at 2 μg/ml) was 93.3% and the “Cumulative % inhibited at ACHN-490 MIC” value (Citrobacter spp. (15); at 4 μg/ml) was 100.0%. For the same compound, the “Cumulative % inhibited at ACHN-490 MIC” value (Citrobacter spp. (15); at ≦0.25 μg/ml) was 0.0%, the “Cumulative % inhibited at ACHN-490 MIC” value (M. morganii (15); at 0.5 μg/ml) was 0.0% and the “Cumulative % inhibited at ACHN-490 MIC” value (M. morganii (15); at 1 μg/ml) was 6.7%. The “Cumulative % inhibited at ACHN-490 MIC” value (M. morganii (15); at 2 μg/ml) was 60.0%, the “Cumulative % inhibited at ACHN-490 MIC” value (M. morganii (15); at 4 μg/ml) was 86.7% and the “Cumulative % inhibited at ACHN-490 MIC” value (M. morganii (15); at 8 μg/ml) was 100.0%. For the same compound, the “Cumulative % inhibited at ACHN-490 MIC” value (M. morganii (15); at ≦0.25 μg/ml) was 0.0%, the “Cumulative % inhibited at ACHN-490 MIC” value (E. coli (21); at 0.5 μg/ml) was 19.0% and the “Cumulative % inhibited at ACHN-490 MIC” value (E. coli (21); at 1 μg/ml) was 61.9%. For the same compound, the “Cumulative % inhibited at ACHN-490 MIC” value (E. coli (21); at 2 μg/ml) was 100.0%, the “Cumulative % inhibited at ACHN-490 MIC” value (E. coli (21); at ≦0.25 μg/ml) was 0.0% and the “Cumulative % inhibited at ACHN-490 MIC” value (Enterobacter spp. (16); at 0.5 μg/ml) was 75.0%. The “Cumulative % inhibited at ACHN-490 MIC” value (Enterobacter spp. (16); at 1 μg/ml) was 100.0%, the “Cumulative % inhibited at ACHN-490 MIC” value (Enterobacter spp. (16); at ≦0.25 μg/ml) was 0.0% and the “Cumulative % inhibited at ACHN-490 MIC” value (S. aureus (23); at 0.5 μg/ml) was 13.0%. The “Cumulative % inhibited at ACHN-490 MIC” value (S. aureus (23); at 1 μg/ml) was 60.9%, the “Cumulative % inhibited at ACHN-490 MIC” value (S. aureus (23); at 2 μg/ml) was 95.7% and the “Cumulative % inhibited at ACHN-490 MIC” value (S. aureus (23); at 4 μg/ml) was 100.0%. The “Cumulative % inhibited at ACHN-490 MIC” value (S. aureus (23); at ≦0.25 μg/ml) was 0.0%, the “Cumulative % inhibited at ACHN-490 MIC” value (P. mirabilis (20); at 0.5 μg/ml) was 0.0% and the “Cumulative % inhibited at ACHN-490 MIC” value (P. mirabilis (20); at 1 μg/ml) was 5.0%. The “Cumulative % inhibited at ACHN-490 MIC” value (P. mirabilis (20); at 2 μg/ml) was 45.0%, the “Cumulative % inhibited at ACHN-490 MIC” value (P. mirabilis (20); at 4 μg/ml) was 90.0% and the “Cumulative % inhibited at ACHN-490 MIC” value (P. mirabilis (20); at 8 μg/ml) was 95.0%. The “Cumulative % inhibited at ACHN-490 MIC” value (P. mirabilis (20); at 16 μg/ml) was 100.0%, the “Cumulative % inhibited at ACHN-490 MIC” value (P. mirabilis (20); at ≦0.25 μg/ml) was 0.0% and the “Cumulative % inhibited at ACHN-490 MIC” value (S. saprophyticus (19); at 0.5 μg/ml) was 94.7%. For the same compound, the “Cumulative % inhibited at ACHN-490 MIC” value (S. saprophyticus (19); at 1 μg/ml) was 100.0% and the “Cumulative % inhibited at ACHN-490 MIC” value (S. saprophyticus (19); at ≦0.25 μg/ml) was 89.5%.
`C[C@@H](O)[C@H]1C(=O)N2C(C(=O)O)=C(SCCN=CN)C[C@H]12` [IMP, imipenem, reference compound] was tested, and the MIC [1] was greater than 32 µg/mL, the MIC (E. coli AECO 1003, MDR) was 0.125 µg/mL and the MIC [2] was 0.25 µg/mL. It also gave an MIC [3] of 32 µg/mL, an MIC ([4]; Table 5, S. aureus MRSA ATCC 33591, read-out: MIC) greater than 16 µg/mL and an MIC [5] of 0.5 µg/mL. It also gave an MIC [6] of 0.125 µg/mL (≈ 0.418 µM).
Work on `CN[C@H](CC(C)C)C(=O)N[C@H]1C(=O)N[C@@H](CC(N)=O)C(=O)N[C@H]2C(=O)N[C@H]3C(=O)N[C@H](C(=O)N[C@H](C(=O)O)c4cc(O)cc(O)c4-c4cc3ccc4O)[C@H](O)c3ccc(c(Cl)c3)Oc3cc2cc(c3O[C@@H]2O[C@H](CO)[C@@H](O)[C@H](O)[C@H]2O[C@H]2C[C@](C)(N)[C@H](O)[C@H](C)O2)Oc2ccc(cc2Cl)[C@H]1O` [VAN, vancomycin] yielded an MIC [4] of 1 µg/mL.
With `O=C1CN(/N=C/c2ccc([N+](=O)[O-])o2)C(=O)N1` [nitrofurantoin] the Staphylococcal susceptibility rate (Staphylococcal isolates) was 33.3%.
